Data set [1] concerns primary MRC5 fibroblasts aged in culture. As to the kind of experiment: Misshapen nuclei in aged MRC5 cells. It is filed as cell-based, human. Particulars: population doubling 44. The text has this:
FIG. 10: Remodelin rescues nuclear shape of aged MRC5 cells but not WS cells in a dose dependent manner. A) Misshapen nuclei observed by DAPI staining in MRC5 aged cells in culture, at population doubling 44 (PD44) were rescued by Remodelin. B) Quantification of misshapen nuclei after increasing concentrations of Remodelin (mean of three independent experiments±s.e.m.). C) DAPI staining of non-laminopathic Werner Syndrome cells (WS) showing no nuclear shape improvement upon Remodelin treatment. D) Cell Profiler quantification of misshapen nuclei (mean of three independent experiments±s.d. n>273). Scale bars: 50 μm.
U2OS and SaOS-2 osteosarcoma cells, HeLa cervical cancer cells, A431 melanoma cells, NCI-SNU5 gastric cancer cells, MRC-5 lung fibroblast cells and Werner syndrome patient-derived SV40 fibroblast cells were grown in Dulbecco's modified Eagle medium (DMEM, Sigma-Aldrich) supplemented with 10% fetal bovine serum (BioSera), 2 mM L-glutamine, 100 U per ml penicillin, 100 μg ml^−1 streptomycin. Normal skin primary fibroblasts GM03440 and Hutchinson Gilford Progeria Syndrome (HGPS) skin primary fibroblasts AG11498 and AG06297 were purchased from Coriell Cell Repositories and used between passage number 9-12 and 20-23 respectively. Cells were grown in DMEM supplemented as above. […] Cells were analysed 48 to 72 hours after transfection.

The next data set deals with normal human fibroblasts. As to the kind of experiment: Nuclear shape of normal fibroblasts, with or without FTI. It is filed as cell-based. From the text:
FIG. 11: Remodelin prevents FTI induced nuclear shape defects in non-progeric cells. A) Analysis of Lamin A/C processing after Remodelin or FTI treatment, showing that Remodelin is not a FTI. B) Representative pictures of Lamin A/C IF staining after the indicated treatments. Arrows indicate FTI induced misshapen nuclei in normal fibroblasts. Scale bar: 50 μm. C) Quantification of misshapen nuclei with the indicated cell lines and inhibitor treatments (means of three independent experiments±s.e.m. n>178). D) Representative pictures of DAPI staining showing effects of FTI and Remodelin on nuclear shape of U2OS cells. Scale bars: 20 μm.
(§1) U2OS and SaOS-2 osteosarcoma cells, HeLa cervical cancer cells, A431 melanoma cells, NCI-SNU5 gastric cancer cells, MRC-5 lung fibroblast cells and Werner syndrome patient-derived SV40 fibroblast cells were grown in Dulbecco's modified Eagle medium (DMEM, Sigma-Aldrich) supplemented with 10% fetal bovine serum (BioSera), 2 mM L-glutamine, 100 U per ml penicillin, 100 μg ml^−1 streptomycin. […] Cells were analysed 48 to 72 hours after transfection.
The following KAT and KDAC inhibitors were used in the nuclear shape rescue screen, incubating cells with the molecules for 16 hours: trichostatin A (1 μM), sodium butyrate (5 mM), tubacin (10 μM), SAHA (5 μM), curcumin (10 μM), garcinol (50 μM), anacardic acid (1 μM), MB-3 (5 μM), 4-(4-chlorophenyl)-2-(2-cyclopentylidenehydrazinyl)thiazole (Compound 2) (50 μM), 4-(4-chlorophenyl)-2-(2-cyclopentylidene-1-(prop-2-yn-1-yl)hydrazinyl)thiazole (Compound 3) (50 μM) and cyclopentylidene-[4-(4-cyanophenyl)thiazol-2-yl)hydrazine (Compound 1) (Remodelin) (10 to 50 μM). […] Senescence was assessed after 8 days of Remodelin treatment when cells were at Population Doubling 12, and then after several weeks of Remodelin treatment, when cells reached Population Doubling 24 using the Senescence β-Galactosidase Staining Kit #9860 from Cell Signaling. […]

The subject of data set [2] is cancer cell lines displaying reduced Lamin A/C expression. As to the kind of experiment: Nuclear morphology of cancer cell lines with reduced Lamin A/C expression (DAPI). The format is cell-based, human.
Excerpt: FIG. 2: Small molecule Compound 2 rescues nuclear shape defects in various Lamin A/C depleted cells. A) and B) Nuclear shape visualization by DAPI staining of HeLa (A) or RPE-1 (B) cells depleted for Lamin A/C (siLMNA) and treated with various KATi. Scale bars: 50 μm. C) and D) Cell Profiler quantification of nuclear circularity of HeLa (C) or RPE-1 (D) cells from DAPI staining as shown in A) and B) (means of three independent experiments with n>252±s.d). E) Cell cycle profile analysed by flow cytometry. PI: propidium iodide. F) Analysis of Lamin A/C expression levels in indicated cancer cell lines. Bottom panel: Image J quantification of Lamin A/C expression in cancer cells relative to normal RPE-1 cells. G) Representative pictures of DAPI staining showing nuclear shape improvement in low Lamin A/C expressing cancer cells after treatment with Compound 2. Scale bars: 20 μm.
as §1

Data set [3] deals with cells (sub-cellular distribution). Put plainly: Fluorescent labelling of clickable molecules (sub-cellular distribution). The format is cell-based. As to conditions: 2 hours pre-incubation, Alexa fluor 488 Azide click. As to the method: Cells were pre-incubated with clickable molecules Compound 3 or Reference Compound A (1-Chloro-4-ethynilbenzene, purchased from Sigma-Aldrich) for 2 hours before being fixed and permeabilised as described above. Click reaction was prepared using Invitrogen Click-iT reagents with Alexa fluor 488 Azide and incubated with fixed cells for 1 hour in the dark. In case of co-labelling with another protein, the click reaction was performed before the antibody incubations.

The structures appear in SMILES notation. Structures can show the parent of a compound that is named as a salt.

With `N#Cc1ccc(-c2csc(NN=C3CCCC3)n2)cc1` [Compound 1, 4-(4-Cyanophenyl)-2-(2-cyclopentylidenehydrazinyl)thiazole], the “misshapen nuclei of aged MRC5 cells” value in data set [1] is reported as “also had this effect on primary MRC5 fibroblasts aged in culture”. The “nuclear shape of normal cells” value in the data set on normal human fibroblasts (cells that do not express Progerin) is reported as “did not induce nuclear shape defects in normal human fibroblasts”. In addition, the “FTI-induced nuclear shape defects” value in the data set on normal human fibroblasts (normal fibroblasts co-treated with FTI) is reported as “prevented FTI-induced nuclear shape defects”.
For the molecule `Clc1ccc(-c2csc(NN=C3CCCC3)n2)cc1` [Compound 2, 4-(4-Chlorophenyl)-2-(2-cyclopentylidenehydrazinyl)thiazole Hydrochloride Salt], in data set [2], the “nuclear morphology of cancer cell lines” value is given as “improved the nuclear morphology of several cancer cell lines”.
Take `C#CCN(N=C1CCCC1)c1nc(-c2ccc(Cl)cc2)cs1` [Compound 3, 4-(4-Chlorophenyl)-2-(2-cyclopentylidene-1-(prop-2-yn-1-yl)hydrazinyl)thiazole]: the “sub-cellular distribution of fluorescently labelled molecule” value in data set [3] is “predominant accumulation of Compound 3 in nucleoli”.

The values are drawn from patent US9809562B2, “NAT10 modulators for treating or preventing laminopathies, aging and cancer” (CAMBRIDGE ENTERPRISE LIMITED, priority 2014, dated 2017).
